According to US8679803B2, “Glucose conversion to ethanol via yeast cultures and bicarbonate ions” (Church & Dwight Co., Inc., priority 2007, dated 2014):
Like-named read-outs stand apart in the source and are kept apart here.

Test system: Saccharomyces cerevisiae (Ethanol Red)
Settings: yeast 2.4 g/L, glucose concentration at 10%
Protocol: Various concentrations of yeast were added to glucose based liquid media with and without NaHCO3 and the fermentation process monitored for glucose consumption and ethanol production.
The fermentation media consisted of 25 gm of glucose and 1 ml of urea (45%) in 250 ml of water. The pH of the system was adjusted to 4.5 with 1 M H2SO4. The temperature of incubation was about 32° C., and the tests were conducted for 72 hours. The tests compared fermentation systems with and without sodium bicarbonate (NaHCO3). NaHCO3 was added to final concentrations of 200 ppm or 500 ppm in the test vessels. […] In some vessels the pH was readjusted to 4.5. Yeasts (Saccharomyces cerevisiae (Ethanol Red) diluted 1 to 5 in water, were added to the various test vessels at 0.5, 2, 3, 4 and 5 ml. Yeasts at 3 ml in the vessel corresponds to 2.4 g/L. The fermentation media vessels were monitored for glucose utilization and ethanol production via HPLC measurement at 2, 4, 6, 24, 48 and 72 hours.

O=C([O-])O.[Na+] [SBC, sodium bicarbonate]
Ethanol (% after 48 hours) (SBC 200 ppm): 4.8% | Ethanol (% after 48 hours) (SBC 500 ppm): 4.8%
